≈ marks a conversion by molar mass, not a printed value. Calls of active or inactive are those of the source. No cut-off for these calls is given here.
Columns and labels:
Micrococcus luteus [1] = experiment: Antibacterial activity against Micrococcus luteus MTCC 2470 after 24 hrs by well diffusion method; assay type: functional
Staphylococcus aureus [2] = experiment: Antibacterial activity against Staphylococcus aureus MTCC 96 after 24 hrs by well diffusion method; assay type: functional
Staphylococcus aureus [3] = experiment: Antibacterial activity against Staphylococcus aureus MLS16 MTCC 2940 after 24 hrs by well diffusion method; assay type: functional
Pseudomonas aeruginosa [4] = experiment: Antibacterial activity against Pseudomonas aeruginosa MTCC 2453 after 24 hrs by well diffusion method; assay type: functional
Escherichia coli [5] = experiment: Antibacterial activity against Escherichia coli MTCC 739 after 24 hrs by well diffusion method; assay type: functional
Raoultella planticola [6] = experiment: Antibacterial activity against Klebsiella planticola MTCC 530 after 24 hrs by well diffusion method; assay type: functional
Bacillus subtilis [7] = experiment: Antibacterial activity against Bacillus subtilis MTCC 121 after 24 hrs by well diffusion method; assay type: functional
Micrococcus luteus [8] = experiment: Bactericidal activity against Micrococcus luteus MTCC 2470 incubated for 24 hrs followed by transfer of microbial suspension to Mueller Hinton agar plates and measured after 24 hrs post transfer; assay type: functional
Bacillus subtilis [9] = experiment: Antibiofilm activity against Bacillus subtilis MTCC 121 after 24 hrs by crystal violet staining-based assay; assay type: functional, organism-based
Pseudomonas aeruginosa [10] = experiment: Antibiofilm activity against Pseudomonas aeruginosa MTCC 2453 after 24 hrs by crystal violet staining-based assay; assay type: functional, organism-based
Bacillus subtilis [11] = experiment: Bactericidal activity against Bacillus subtilis MTCC 121 incubated for 24 hrs followed by transfer of microbial suspension to Mueller Hinton agar plates and measured after 24 hrs post transfer; assay type: functional
Escherichia coli [12] = experiment: Bactericidal activity against Escherichia coli MTCC 739 incubated for 24 hrs followed by transfer of microbial suspension to Mueller Hinton agar plates and measured after 24 hrs post transfer; assay type: functional
Staphylococcus aureus [13] = experiment: Bactericidal activity against Staphylococcus aureus MTCC 96 incubated for 24 hrs followed by transfer of microbial suspension to Mueller Hinton agar plates and measured after 24 hrs post transfer; assay type: functional
Staphylococcus aureus [14] = experiment: Antibiofilm activity against Staphylococcus aureus MTCC 96 after 24 hrs by crystal violet staining-based assay; assay type: functional, organism-based
Raoultella planticola [15] = experiment: Bactericidal activity against Klebsiella planticola MTCC 530 incubated for 24 hrs followed by transfer of microbial suspension to Mueller Hinton agar plates and measured after 24 hrs post transfer; assay type: functional
Staphylococcus aureus [16] = experiment: Bactericidal activity against Staphylococcus aureus MLS16 MTCC 2940 incubated for 24 hrs followed by transfer of microbial suspension to Mueller Hinton agar plates and measured after 24 hrs post transfer; assay type: functional
Pseudomonas aeruginosa [17] = experiment: Bactericidal activity against Pseudomonas aeruginosa MTCC 2453 incubated for 24 hrs followed by transfer of microbial suspension to Mueller Hinton agar plates and measured after 24 hrs post transfer; assay type: functional
Raoultella planticola [18] = experiment: Antibiofilm activity against Klebsiella planticola MTCC 530 after 24 hrs by crystal violet staining-based assay; assay type: functional, organism-based
Staphylococcus aureus [19] = experiment: Antibiofilm activity against Staphylococcus aureus MLS16 MTCC 2940 after 24 hrs by crystal violet staining-based assay; assay type: functional, organism-based

`COc1ccc(-c2nc(C(=O)NCc3ccccc3)nc3nc(-c4ccccc4)cc(C(F)(F)F)c23)cc1` was tested, and the MIC (Micrococcus luteus [1]) was “inactive”, the MIC (Staphylococcus aureus [2]) was “inactive” and the MIC (Staphylococcus aureus [3]) was “inactive”. The MIC (Pseudomonas aeruginosa [4]) was “inactive”, the MIC (Escherichia coli [5]) was “inactive” and the MIC (Raoultella planticola [6]) was “inactive”. For the same molecule, the MIC (Bacillus subtilis [7]) was “inactive”.
In the case of `COc1ccc(-c2nc(C(=O)NC3CCCCC3)nc3nc(-c4ccccc4)cc(C(F)(F)F)c23)cc1`, the MIC (Micrococcus luteus [1]) was “inactive”, the MIC (Staphylococcus aureus [2]; MTCC 96, 24 h) was 7.8 µg/mL (≈ 15.4 µM) and the MBC (Micrococcus luteus [8]) was “inactive”. For the same molecule, the MIC (Staphylococcus aureus [3]) was “inactive”, the MIC (Pseudomonas aeruginosa [4]) was “inactive” and the MIC (Escherichia coli [5]) was “inactive”. For the same molecule, the IC50 (Bacillus subtilis [9]) was “Not Active”, the IC50 (Pseudomonas aeruginosa [10]) was “Not Active” and the MBC (Bacillus subtilis [11]) was “inactive”. For the same molecule, the MIC (Raoultella planticola [6]) was “inactive”, the MBC (Escherichia coli [12]) was “inactive” and the MBC (Staphylococcus aureus [13]; MTCC 96, 24 h) was 7.8 µg/mL (≈ 15.4 µM). For the same molecule, the IC50 (Staphylococcus aureus [14]; Staphylococcus aureus, MTCC 96, 24 h, read-out: IC50) was 2.7 µg/mL (≈ 5.33 µM), the MIC (Bacillus subtilis [7]) was “inactive” and the MBC (Raoultella planticola [15]) was “inactive”. For the same molecule, the MBC (Staphylococcus aureus [16]) was “inactive”, the MBC (Pseudomonas aeruginosa [17]) was “inactive” and the IC50 (Raoultella planticola [18]) was “Not Active”. The IC50 (Staphylococcus aureus [19]) was “Not Active”.
For `COc1ccc(-c2nc(C(=O)NCc3ccco3)nc3nc(-c4ccccc4)cc(C(F)(F)F)c23)cc1`, the MIC (Micrococcus luteus [1]) was “inactive”, the MIC (Staphylococcus aureus [2]) was “inactive” and the MIC (Staphylococcus aureus [3]) was “inactive”. The MIC (Pseudomonas aeruginosa [4]) was “inactive”, the MIC (Escherichia coli [5]) was “inactive” and the MIC (Raoultella planticola [6]) was “inactive”. The MIC (Bacillus subtilis [7]) was “inactive”.
With `COc1ccc(-c2nc(C(=O)N3CCCC3)nc3nc(-c4ccccc4)cc(C(F)(F)F)c23)cc1` the MIC (Micrococcus luteus [1]) was “inactive”, the MIC (Staphylococcus aureus [2]) was “inactive” and the MBC (Micrococcus luteus [8]) was “inactive”. For the same molecule, the MIC (Staphylococcus aureus [3]) was “inactive”, the MIC (Pseudomonas aeruginosa [4]) was “inactive” and the MIC (Escherichia coli [5]) was “inactive”. The IC50 (Bacillus subtilis [9]) was “Not Active”, the IC50 (Pseudomonas aeruginosa [10]) was “Not Active” and the MBC (Bacillus subtilis [11]) was “inactive”. The MIC (Raoultella planticola [6]; MTCC 530, 24 h) was 15.6 µg/mL (≈ 32.6 µM), the MBC (Escherichia coli [12]) was “inactive” and the MBC (Staphylococcus aureus [13]) was “inactive”. For the same molecule, the IC50 (Staphylococcus aureus [14]) was “Not Active”, the MIC (Bacillus subtilis [7]) was “inactive” and the MBC (Raoultella planticola [15]; MTCC 530, 24 h) was 15.6 µg/mL (≈ 32.6 µM). The MBC (Staphylococcus aureus [16]) was “inactive”, the MBC (Pseudomonas aeruginosa [17]) was “inactive” and the IC50 (Raoultella planticola [18]; Klebsiella planticola, MTCC 530, 24 h, read-out: IC50) was 10.8 µg/mL (≈ 22.6 µM). The IC50 (Staphylococcus aureus [19]) was “Not Active”.
In the case of `COc1ccc(-c2nc(C(=O)NCCO)nc3nc(-c4ccccc4)cc(C(F)(F)F)c23)cc1`, the MIC (Micrococcus luteus [1]) was “inactive”, the MIC (Staphylococcus aureus [2]) was “inactive” and the MIC (Staphylococcus aureus [3]) was “inactive”. For the same molecule, the MIC (Pseudomonas aeruginosa [4]) was “inactive”, the MIC (Escherichia coli [5]) was “inactive” and the MIC (Raoultella planticola [6]) was “inactive”. For the same molecule, the MIC (Bacillus subtilis [7]) was “inactive”.

From ChEMBL document CHEMBL4219190, “Studies on synthesis of novel pyrido[2,3-d]pyrimidine derivatives, evaluation of their antimicrobial activity and molecular docking” (Bioorg Med Chem Lett, 2018)
